Source: patent US8748496B2, “Methods of treatment of hyperuricemia and associated disease states” (Elan Pharmaceuticals, Inc., priority 2008, dated 2014)
“Also recorded” adds a separate entry of the source.

Test system: serum uric acid levels
Experiment: Phase 1 open-label multiple dosing study, serum uric acid in healthy adult subjects
Assay type: in vivo, human
Conditions: 2000 mg BID oral 10 days; for uric acid, Mean: N=8
Description: A Phase 1 single site, open-label multiple dosing study evaluating a scyllo-inositol formulation was conducted in healthy adult subjects. Approximately 8 healthy male subjects received 2000 mg of scyllo-inositol twice daily (4-500 mg tablets orally administered twice a day) for 10 days. Blood samples were collected 12 hours prior to the first dose (day 0) and on days 6, 14, and 21. Scyllo-inositol 500 mg capsules were BSE/TSE-free soft gelatin, white, opaque capsules and no excipients were used in the finished product. Capsules were supplied in 60-mL, oblong, white pharmaceutical high density polyethylene (HDPE) bottles with white caps. Each 60-mL bottle contained 30 capsules of 500 mg strength scyllo-inositol.

[1] = Baseline (Day 0, before first dose)

O[C@H]1[C@H](O)[C@@H](O)[C@H](O)[C@@H](O)[C@@H]1O [scyllo-inositol, 1,2,3,4,5,6-cyclohexanehexyl, (1alpha,2beta,3alpha,4beta,5alpha,6beta)]
uric acid, Max [1]: 375 micromole per liter | uric acid, Median [1]: 300.4 micromole per liter | uric acid, Min [1]: 256 micromole per liter | uric acid, Mean [1]: 305.6 micromole per liter | uric acid, Max (Day 6): 250 micromole per liter | uric acid, Max Change from Baseline (Day 6): −12 micromole per liter | uric acid, Mean Change from Baseline (Day 6): −88.8 micromole per liter | uric acid, Median (Day 6): 226.0 micromole per liter | uric acid, Median Change from Baseline (Day 6): −72.6 micromole per liter | uric acid, Min (Day 6): 155 micromole per liter | uric acid, Min Change from Baseline (Day 6): −172 micromole per liter | uric acid, Mean (Day 6): 216.8 micromole per liter | uric acid, Max (Day 14): 274 micromole per liter | uric acid, Max Change from Baseline (Day 14): −12 micromole per liter | uric acid, Mean Change from Baseline (Day 14): −70.6 micromole per liter | uric acid, Median (Day 14): 237.9 micromole per liter | uric acid, Median Change from Baseline (Day 14): −74.4 micromole per liter | uric acid, Min (Day 14): 196 micromole per liter | uric acid, Min Change from Baseline (Day 14): −131 micromole per liter | uric acid, Mean (Day 14): 243.9 micromole per liter | uric acid, Max (Day 21): 333 micromole per liter | uric acid, Max Change from Baseline (Day 21): 65 micromole per liter | uric acid, Mean Change from Baseline (Day 21): −16.4 micromole per liter | uric acid, Median (Day 21): 291.5 micromole per liter | uric acid, Median Change from Baseline (Day 21): −23.8 micromole per liter | uric acid, Min (Day 21): 250 micromole per liter | uric acid, Min Change from Baseline (Day 21): −83 micromole per liter | uric acid after the end of treatment (Day 21, last follow-up visit): returned to Day 0 values by Day 21 | uric acid, Mean (Day 21): 289.2 micromole per liter | serum uric acid levels following the start of treatment (all 8 subjects): decreased in all subjects; also recorded: a decrease in serum uric acid levels was observed in all subjects | mean uric acid levels versus normal range (during the study): remained within the normal range
